Assay results as given in patent publication US20240246968A1, “SMALL MOLECULE INHIBITORS OF KRAS G12C MUTANT” (Merck Sharp & Dohme LLC, priority 2021, published 2024).

How the values were obtained:
[1] = target: biotinylated KRAS G12C protein (GMP-PNP loaded) and GST-tagged Ras binding domain of c-RAF (Homo sapiens, UniProt P01116, C118S/C51S/C80L/G12C); assay: RAS:RAF-RBD binding assay (TR-FRET); type: biochemical; settings: 30-minute incubation with KRAS G12C, then RAF-RBD 60 minute
[2] = system: cancer cells with the KRAS G12C mutation; settings: cited from earlier work
[3] = system: tumor-bearing mice expressing the KRAS G12C mutation; settings: cited from earlier work

Chain of biotinylated KRAS G12C protein (GMP-PNP loaded) and GST-tagged Ras binding domain of c-RAF (P01116 with tags, fused parts or gaps isoform P01116-2 G12C/C51S/C80L/C118S): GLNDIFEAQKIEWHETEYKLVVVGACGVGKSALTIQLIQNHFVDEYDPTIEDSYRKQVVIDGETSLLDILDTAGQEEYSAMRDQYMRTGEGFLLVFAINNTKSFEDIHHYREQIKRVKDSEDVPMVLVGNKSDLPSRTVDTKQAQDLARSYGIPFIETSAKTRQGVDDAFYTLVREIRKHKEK

IC50 [1]	Structure (SMILES)	also measured
13.4 nM	Cc1nc2c(Cl)c(-c3cccn4c(C(=O)c5cc(F)c(NC(=O)/C=C/CNC6(C)CCOC6)c(F)c5)ccc34)c(C(F)(F)F)cc2n1C (single isomer, unassigned) [Example 131a, (E)-N-(4-(8-(4-chloro-1,2-dimethyl-6-(trifluoromethyl)-1H-benzo[d]imidazol-5-yl)indolizine-3-carbonyl)-2,6-difluorophenyl)-4-((3-methyltetrahydrofuran-3-yl)amino)but-2-enamide]	–
12.4 nM	Cc1nc2c(Cl)c(-c3cccn4c(C(=O)c5cc(F)c(NC(=O)/C=C/CNC6(C)CCOC6)c(F)c5)ccc34)c(C(F)(F)F)cc2n1C (single isomer, unassigned) [Example 131b, (E)-N-(4-(8-(4-chloro-1,2-dimethyl-6-(trifluoromethyl)-1H-benzo[d]imidazol-5-yl)indolizine-3-carbonyl)-2,6-difluorophenyl)-4-((3-methyltetrahydrofuran-3-yl)amino)but-2-enamide]	–

The next lines start with the compound.

Structure (SMILES)	IC50 [1]	also measured
CO[C@H]1CC[C@H](NC/C=C/C(=O)Nc2c(F)cc(C(=O)c3ccc4c(-c5c(C(F)(F)F)cc6c(cnn6C)c5Cl)cccn34)cc2F)CC1 (single isomer, unassigned) [Example 118, (E)-N-(4-(8-(4-chloro-1-methyl-6-(trifluoromethyl)-1H-indazol-5-yl)indolizine-3-carbonyl)-2,6-difluorophenyl)-4-(((1r,4r)-4-methoxycyclohexyl)amino)but-2-enamide]	461 nM	–
Cc1c2cc(C(F)(F)F)c(-c3cccn4c(C(=O)c5cc(F)c(NC(=O)/C=C/CNC6(C)COC6)c(F)c5)ccc34)c(O)c2nn1C (single isomer, unassigned) [Example 123, (E)-N-(4-((2,6-difluoro-4-(8-(7-hydroxy-2,3-dimethyl-5-(trifluoromethyl)-2H-indazol-6-yl)indolizine-3-carbonyl)phenyl)amino)-4-oxobut-2-en-1-yl)-3-methyloxetan-3-aminium 2,2,2-trifluoroacetate]	78.4 nM	–
C=CC(=O)N1CC(N2CCN(C(=O)CNc3cc(C4(C)CC4)c(Cl)cc3O)CC2)C1 [ARS-853]	–	inhibition of KRAS activity and antiproliferative effect under EGFR activation ([2]; KRAS G12C mutated cell line, EGFR activation): attenuated; induction of apoptosis ([2]; cancer cells with the KRAS G12C mutation): inducing apoptosis
C=CC(=O)N1CCN(c2ncnc3c(F)c(-c4c(O)cccc4F)c(Cl)cc23)CC1 [ARS-1620]	–	antitumor action [3]: exerts antitumor action
CO[C@H]1CC[C@H](NC/C=C/C(=O)Nc2c(F)cc(C(=O)c3ccc4c(-c5cc6ncccc6cc5C(F)(F)F)cccn34)cc2F)CC1 [Example 120, mono(7-(3-(3,5-difluoro-4-((E)-4-(((1r,4r)-4-methoxycyclohexyl)ammonio)but-2-enamido)benzoyl)indolizin-8-yl)-6-(trifluoromethyl)quinolin-1-ium) mono(2,2,2-trifluoroacetate)]	482 nM	–
CO[C@H]1CC[C@H](NC/C=C/C(=O)Nc2c(F)cc(C(=O)c3ccc4c(-c5cc6c(cc5C(F)(F)F)CCN(C)C6=O)cccn34)cc2F)CC1 [Example 121, (1r,4r)-N-((E)-4-((2,6-difluoro-4-(8-(2-methyl-1-oxo-6-(trifluoromethyl)-1,2,3,4-tetrahydroisoquinolin-7-yl)indolizine-3-carbonyl)phenyl)amino)-4-oxobut-2-en-1-yl)-4-methoxycyclohexan-1-aminium 2,2,2-trifluoroacetate]	168 nM	–
CO[C@H]1CC[C@H](NC/C=C/C(=O)Nc2c(F)cc(C(=O)c3ccc4c(-c5cc6c(=O)n(C)ccc6cc5C(F)(F)F)cccn34)cc2F)CC1 [Example 125, (1r,4r)-N-((E)-4-((2,6-difluoro-4-(8-(2-methyl-1-oxo-6-(trifluoromethyl)-1,2-dihydroisoquinolin-7-yl)indolizine-3-carbonyl)phenyl)amino)-4-oxobut-2-en-1-yl)-4-methoxycyclohexan-1-aminium 2,2,2-trifluoroacetate]	398 nM	–
CO[C@H]1CC[C@H](NC/C=C/C(=O)Nc2c(F)cc(C(=O)n3ccc4c(-c5c(C(F)(F)F)cc6c(nc(C)n6C)c5Cl)cccc43)cc2F)CC1 [Example 126, (E)-N-(4-(4-(4-chloro-1,2-dimethyl-6-(trifluoromethyl)-1H-benzo[d]imidazol-5-yl)-1H-indole-1-carbonyl)-2,6-difluorophenyl)-4-(((1r,4r)-4-methoxycyclohexyl)amino)but-2-enamide]	28.3 nM	–
Cc1nc2c(Cl)c(-c3cccn4c(C(=O)c5cc(F)c(NC(=O)/C=C/CNC6CCC6(C)C)c(F)c5)ccc34)c(C(F)(F)F)cc2n1C (stereo not shown) [Example 127, mono((E)-4-chloro-5-(3-(4-(4-((2,2-dimethylcyclobutyl)ammonio)but-2-enamido)-3,5-difluorobenzoyl)indolizin-8-yl)-1,2-dimethyl-6-(trifluoromethyl)-1H-benzo[d]imidazol-3-ium) mono(2,2,2-trifluoroacetate)]	403 nM	–
Cc1nc2c(Cl)c(-c3cccn4c(C(=O)c5cc(F)c(NC(=O)/C=C/CN(C)C)c(F)c5)ccc34)c(C(F)(F)F)cc2n1C [Example 128, mono((E)-4-chloro-5-(3-(4-(4-(dimethylammonio)but-2-enamido)-3,5-difluorobenzoyl)indolizin-8-yl)-1,2-dimethyl-6-(trifluoromethyl)-1H-benzo[d]imidazol-3-ium) mono(2,2,2-trifluoroacetate)]	159 nM	–
Cc1nc2c(Cl)c(-c3cccn4c(C(=O)c5cc(F)c(NC(=O)/C=C/CN6CCCC6C(C)(C)O)c(F)c5)ccc34)c(C(F)(F)F)cc2n1C (stereo not shown) [Example 129, mono((E)-4-chloro-5-(3-(3,5-difluoro-4-(4-(2-(2-hydroxypropan-2-yl)pyrrolidin-1-ium-1-yl)but-2-enamido)benzoyl)indolizin-8-yl)-1,2-dimethyl-6-(trifluoromethyl)-1H-benzo[d]imidazol-3-ium) mono(2,2,2-trifluoroacetate)]	101 nM	–
Cc1nc2c(Cl)c(-c3cccn4c(C(=O)c5cc(F)c(NC(=O)/C=C/CN6CCC[C@H]6CO)c(F)c5)ccc34)c(C(F)(F)F)cc2n1C [Example 130, mono(4-chloro-5-(3-(3,5-difluoro-4-((E)-4-((2S)-2-(hydroxymethyl)pyrrolidin-1-ium-1-yl)but-2-enamido)benzoyl)indolizin-8-yl)-1,2-dimethyl-6-(trifluoromethyl)-1H-benzo[d]imidazol-3-ium) mono(2,2,2-trifluoroacetate)]	95.9 nM	–
Cc1c(-c2cccn3c(C(=O)c4cc(F)c(NC(=O)/C=C/CN[C@H]5CCOC5)c(F)c4)ccc23)ccc2c1CCC2O (stereo partly drawn) [Example 132, (3S)—N-((E)-4-((2,6-difluoro-4-(8-(1-hydroxy-4-methyl-2,3-dihydro-1H-inden-5-yl)indolizine-3-carbonyl)phenyl)amino)-4-oxobut-2-en-1-yl)tetrahydrofuran-3-aminium 2,2,2-trifluoroacetate]	300 nM	–
